Key:
5-HT1A receptor [1] = target: T1, 5-HT1A receptor (Rattus norvegicus, UniProt P19327); assay: 5-HT1A receptor binding in rat hippocampal membrane homogenate (Alexander and Wood)
T1 construct: rat hippocampal membrane homogenate; from tissue; host or cells: rat hippocampus, membrane homogenate
T1 sequence (P19327 1-422): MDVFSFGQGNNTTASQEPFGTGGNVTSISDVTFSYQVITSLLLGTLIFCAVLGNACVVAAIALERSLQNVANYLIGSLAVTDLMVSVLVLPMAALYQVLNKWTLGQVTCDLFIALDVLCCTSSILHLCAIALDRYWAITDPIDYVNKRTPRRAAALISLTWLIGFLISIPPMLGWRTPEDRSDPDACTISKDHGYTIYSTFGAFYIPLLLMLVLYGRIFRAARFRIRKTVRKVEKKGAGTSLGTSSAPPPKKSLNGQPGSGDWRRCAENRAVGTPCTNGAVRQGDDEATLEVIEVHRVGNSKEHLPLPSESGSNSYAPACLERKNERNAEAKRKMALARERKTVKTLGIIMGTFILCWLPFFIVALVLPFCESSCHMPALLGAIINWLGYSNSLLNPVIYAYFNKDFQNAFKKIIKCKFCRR
Protocol: The compounds of the invention were tested for 5-HT1A receptor binding activity in rat hippocampal membrane homogenate by the method of B S Alexander and M D Wood, J Pharm Pharmacol, 1988, 40, 888-891.

5-HT1A receptor [2] = target: T2, 5-HT1A receptor (Cavia porcellus, UniProt A0A286Y074); assay: 5-HT1A receptor antagonism: antagonism of 5-carboxamidotryptamine in the guinea-pig ileum in vitro (Fozard et al); conditions: read-out: pA2, 5-HT1A receptor antagonism (converted)
T2 construct: in the guinea-pig ileum in vitro; from tissue; host or cells: guinea-pig ileum, isolated
T2 sequence (A0A286Y074 1-421): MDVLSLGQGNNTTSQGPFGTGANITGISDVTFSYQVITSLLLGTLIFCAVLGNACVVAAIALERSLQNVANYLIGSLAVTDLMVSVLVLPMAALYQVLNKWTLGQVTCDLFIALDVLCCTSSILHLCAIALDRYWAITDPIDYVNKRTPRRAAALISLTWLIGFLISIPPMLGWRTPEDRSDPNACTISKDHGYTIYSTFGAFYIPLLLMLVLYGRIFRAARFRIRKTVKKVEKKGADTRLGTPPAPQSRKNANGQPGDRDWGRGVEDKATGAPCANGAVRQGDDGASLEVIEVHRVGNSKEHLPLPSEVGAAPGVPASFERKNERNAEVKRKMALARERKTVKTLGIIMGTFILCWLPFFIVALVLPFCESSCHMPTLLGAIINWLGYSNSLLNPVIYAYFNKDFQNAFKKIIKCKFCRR
Protocol: The compounds are tested for 5-HT1A receptor antagonism activity in a test involving the antagonism of 5-carboxamidotryptamine in the guinea-pig ileum in vitro (based upon the procedure of Fozard et at, Br J Pharmac, 1985, 86, 601P).

IC50 (5-HT1A receptor [1]) [nM] | Kb (5-HT1A receptor [2]) [nM] | SMILES
1.84 | – | COc1ccccc1N1CCN(C2CC=C(c3ncc(C)cc3C)CC2)CC1 (stereo not shown) [Example 19, 1-(2-Methoxyphenyl)-4-[1-(3,5-dimethylpyridin-2-yl)-cyclohex-1-en-4-yl]piperazine]
0.6 | 0.794 | COc1ccccc1N1CCN([C@H]2CC[C@H](c3ccccc3)CC2)CC1 [Example 1 (trans), trans-1-(2-methoxyphenyl)-4-(1-phenylcyclohex-4-yl)piperazine]
1.6 | – | COc1ccccc1N1CCN([C@H]2CC[C@H](c3ncc(C)cc3C)CC2)CC1 [Example 20, Trans-1-(2-Methoxyphenyl)-4-[1-(3,5-dimethylpyridin-2-yl)-cyclohex-4-yl]piperazine]

Reference: patent publication US5622951A, “Piperazine derivatives as 5-HT antagonists” (John Wyeth & Brother Ltd., priority 1993, dated 1997)
